# Reference: patent US10155757B2, “Crystalline form of a JAK3 kinase inhibitor” (VECTURA LIMITED, priority 2015, dated 2018)
# Assay: Aerodynamic particle size distribution (APSD) by Next Generation Impactor (NGI), fine particle mass and its stability
# Type: physicochemical
# Details: 1000 μg dose load in 20 mg formulation, NGI 60 Lmin^−1, F1 device
# Method: The aerodynamic particle size distribution (APSD) of the formulations was evaluated with the Next Generation Impactor (NGI) tested at a flow rate of 80 Lmin^−1 in the GyroHaler® device (Compound 1—Gentisic Acid) and 60 Lmin^−1 in the F1 device (Compound 1, Compound 1—Maleic Acid and Compound 1—Adipic Acid). One dose was collected for each NGI measurement. Compound 1 deposition on the NGI components was measured by a gradient high performance liquid Chromatography (HPLC) method with UV detection.
# The co-crystals with adipic acid and maleic acid were tested in a Vectura unit dose device as disclosed in WO2010/086285, and the gentisic acid co-crystal was tested in a GyroHaler® device.
smiles,measurement,setting,value
"Cn1c(=O)n([C@H]2CCCN(C(=O)CC#N)C2)c2nc(-c3cnn4ccccc34)ccc21 [Compound 1, (S)-3-(3-(1-methyl-2-oxo-5-(pyrazolo[1,5-a]pyridine-3-yl)-1H-imidazo[4,5-b]pyridine-3(2H)-yl)piperidin-1-yl)-3-oxopropanenitrile]",Fine particle Mass (μg < 5 μm),T = 0 w,418.2 µg
same,Fine particle Mass (μg < 5 μm),T = 4 w,450.7 µg
same,Fine particle Mass (μg < 5 μm),T = 12 w,415.3 µg
